Experimental data published in patent US9410217B2, “Method of reducing a fermentation and/or enzyme inhibitor in a saccharide-containing composition” (priority 2014, dated 2016).
“And” between values parts separate entries of the source, which are not always exact repeats. Equal entries are not always repeated. Where two headings read alike, the source gives them in different places.

Key:
Saccharomyces cerevisiae = experiment: Fermentation test of treated sugar liquor with yeast; assay type: cell-based
Description: The saccharide-containing compositions of Examples 1 and 3 were subjected to a fermentation test with the yeast Saccharomyces cerevisiae. In the fermentation test, 1% yeast extract and 2% peptone were added to the saccharide-containing compositions of Examples 1 and 3 as growth nutrients, and these compositions were then inoculated with 5% inoculum of Saccharomyces cerevisiae (optical density 10). If more than 80% of sugars were consumed in 72 hours of fermentation, the test is considered a “pass” (i.e., a satisfactory test result).
The saccharide-containing compositions were subjected to a fermentation test with the yeast Saccharomyces cerevisiae. In the fermentation test, 1% yeast extract and 2% peptone were added to the saccharide-containing compositions as growth nutrients, and these compositions were then inoculated with 5% inoculum of Saccharomyces cerevisiae (optical density 10). If more than 80% of sugars were consumed in 72 hours of fermentation, the test is considered a “pass” (i.e., a satisfactory test result).

[1] = Reduction of HMF in sugar liquor after contact with amine
Description: Sugar liquor was prepared by a two-step hydrolysis process with subsequent refining. A slurry of particulate biomass was first subjected to a first hydrolysis step at about 190-240° C. and 50-80 bar for 1-120 min. The resulting solids were subjected to supercritical or near-critical water conditions at about 374-450° C. and 221-300 bar for less than 1 minute. The resulting liquid portion was concentrated to about 250-300 g/L of monomer sugar equivalent and acid hydrolyzed at about 100-200° C. for 1 hour. The acid-hydrolyzed liquor was filtered and neutralized with sodium hydroxide to a pH of about 5-7. After that, the liquid portion was overlimed with calcium oxide at pH of about 8-10 and filtered. The final pH adjustment to about 5-7 was done with 70% sulfuric acid. Overliming was performed to produce the sugar liquor used in these examples, and an aldehyde compound, HMF, subsequently re-added to simulate a sugar liquor that is not overlimed.
The pH of 100 g of the sugar liquor was adjusted to 6 with sodium hydroxide prior to addition of the amine. 1 g of m-phenylenediamine (MPD) was added to the sugar liquor, and the mixture was shaken for 1 hour.
Using the same procedure to prepare the sugar liquor as described in Example 1, the pH of 100 g of the sugar liquor was adjusted to 6 with NaOH prior to addition of the amine. For each sample, 1 g of amine was added, and the mixture was shaken for 1 hour.
Using the same procedure to prepare the sugar liquor as described in Example 1, the pH of 100 g of the sugar liquor was adjusted to 6 with sodium hydroxide prior to addition of the amine. For each sample, 1 g of amine was added, and the mixture was shaken for 1 hour.

[2] = Reduction of syringaldehyde in xylose monomer stream (GC/MS); conditions: for Syringaldehyde: 100 g xylose monomer stream after treatment, shaken 30-60 min, untreated control 321.5 ppm; for syringaldehyde reduction (in words): xylose monomer stream, from about 321.5 ppm, pass is less than about 50 ppm
Description: The acid-hydrolyzed liquor was filtered and then neutralized with sodium hydroxide to a pH of about 5-7 to produce the xylose monomer stream. Five samples labeled Samples 1-5 were evaluated as described in Table 2. Sample 1 was an untreated control. […] The flask was shaken for 30-60 min, and Samples 2 and 5 were then analyzed for syringaldehyde by GC/MS. […] The flask was shaken for about 30-60 min, adjusted to pH of about 5 with H2SO4, and then filtered. The resulting liquid portion was analyzed by GC/MS. For Sample 4, the pH of 100 g of the xylose monomer stream was adjusted to 5-6 with NH4OH, the flask was shaken for 30-60 min, and then the samples were analyzed by GC/MS.

Pichia stipitis = experiment: Fermentation testing of treated xylose monomer stream; assay type: cell-based
Description: For fermentation testing, the pH was adjusted back to 5 with H2SO4 and fermentation was performed with the xylose fermenting organism Pichia stipitis.

[3] = sugar liquor after contact, 1 g amine per 100 g liquor, pH 6, shaken 1 hour

| Structure (SMILES) | % Glucose Consumed (Saccharomyces cerevisiae; 24 hr) | Ethanol (Saccharomyces cerevisiae; 24 hr) | % Glucose Consumed (Saccharomyces cerevisiae; 48 hr) | Ethanol (Saccharomyces cerevisiae; 48 hr) | % Glucose Consumed (Saccharomyces cerevisiae; 72 hr) | Ethanol (Saccharomyces cerevisiae; 72 hr) | HMF [1, 3] | HMF (Saccharomyces cerevisiae; 72 hr) | HMF (Saccharomyces cerevisiae; 24 hr) | HMF (Saccharomyces cerevisiae; 48 hr) | also measured |
| --- | --- | --- | --- | --- | --- | --- | --- | --- | --- | --- | --- |
| Cc1ccc(N)cc1N [DAT, 2,4-diaminotoluene] | 51.55% | 43.15 g/L | 96.03% | 92.29 g/L | 95.88% | 86.38 g/L | 0.74 g/L | – | – | – | – |
| Nc1cccc(N)c1 [MPD, m-phenylenediamine] | 95.64% | 77.25 g/L | – | – | – | – | 1.50 g/L | – | – | – | Syringaldehyde [2]: Not detected; syringaldehyde reduction (in words) [2]: below detectable levels; Ethanol (Pichia stipitis; fermentation time 48 hr): 1.80 g/L; Ethanol (Pichia stipitis; fermentation time 72 hr): 4.86 g/L; Ethanol (Pichia stipitis; fermentation time 96 hr): 8.22 g/L; fermentability of treated sample (in words) (Pichia stipitis; xylose monomer stream, pH adjusted back to 5): fermentable |
| N.O [NH4OH] | – | – | – | – | – | – | – | – | – | – | Syringaldehyde [2]: 147.7 ppm; syringaldehyde reduction (in words) [2]: did not reduce the concentration of syringaldehyde to below a detectable level |
| [BH4-].[Na+] [NaBH4] | – | – | – | – | – | – | – | – | – | – | Syringaldehyde [2]: 218.4 ppm; syringaldehyde reduction (in words) [2]: did not reduce the concentration of syringaldehyde to below a detectable level |
| Nc1ccccc1N [OPD, o-phenylenediamine] | 24.24% | 16.80 g/L | 96.61% | 86.88 g/L | 96.53% | 90.28 g/L | – | 0.36 g/L | – | – | – |
| Nc1ccc(N)cc1 [PPD, p-phenylenediamine] | 24.18% | 13.74 g/L | 97.75% | 84.75 g/L | 97.40% | 84.79 g/L | 3.40 g/L | – | 0.30 g/L | 0.37 g/L | – |
| Nc1ccccc1 [aniline] | 5.19% | 1.55 g/L | 5.19% | 1.51 g/L | – | – | 7.43 g/L | – | 5.2 g/L | 4.89 g/L | – |
| NCCO [ethanolamine] | 7.92% | 3.53 g/L | 6.29% | 2.74 g/L | 7.45% | 2.92 g/L | 6.01 g/L | 4.67 g/L | 5.24 g/L | 5.03 g/L | % Glucose Consumed (Saccharomyces cerevisiae; 120 hr): 12.73%; Ethanol (Saccharomyces cerevisiae; 120 hr): 3.54 g/L; HMF (Saccharomyces cerevisiae; 120 hr): 4.46 g/L |
| Nc1nc(N)nc(N)n1 [melamine] | 4.24% | 2.13 g/L | 4.15% | 2.48 g/L | 4.97% | 2.1 g/L | 7.52 g/L | 6.45 g/L | 6.59 g/L | 6.47 g/L | % Glucose Consumed (Saccharomyces cerevisiae; 0 hr): 0%; HMF (Saccharomyces cerevisiae; 0 hr): 7.52 g/L |
| C1CCNCC1 [piperidine] | – | – | – | – | – | – | – | – | – | – | % Glucose Consumed (Saccharomyces cerevisiae): 5.39% and 8.05% and 5.62% and 5.78%; Ethanol (Saccharomyces cerevisiae): 2.37 g/L and 2.49 g/L and 2.71 g/L and 2.15 g/L; HMF (Saccharomyces cerevisiae): 5.31 g/L and 4.83 g/L and 5.51 g/L and 5.61 g/L; HMF ([1]; pH 6): 6.13 g/L |
| NC(N)=O [urea] | 6.18% | 2.72 g/L | 4.49% | 2.23 g/L | 6.35% | 2.39 g/L | 7.44 g/L | 6.06 g/L | 6.58 g/L | 6.49 g/L | % Glucose Consumed (Saccharomyces cerevisiae; 0 hr): 0%; Ethanol (Saccharomyces cerevisiae; 0 hr): 1.38 g/L; HMF (Saccharomyces cerevisiae; 0 hr): 7.44 g/L; % Glucose Consumed (Saccharomyces cerevisiae; 120 hr): 8.49%; Ethanol (Saccharomyces cerevisiae; 120 hr): 2.41 g/L; HMF (Saccharomyces cerevisiae; 120 hr): 5.66 g/L |
